IC50 data for 30 compounds are collected here from patent US9914730B2, “Azaquinazoline inhibitors of Atypical protein Kinase C” (Ignyta, Inc., priority 2012, dated 2018).

This test deals with T1, full-length human PKCι (Homo sapiens, UniProt P41743).
T1 construct: Recombinant, full-length human PKCι expressed in Sf21 insect cells is also commercially available; purchased; host or cells: Sf21 insect cells
T1 sequence (P41743 1-596): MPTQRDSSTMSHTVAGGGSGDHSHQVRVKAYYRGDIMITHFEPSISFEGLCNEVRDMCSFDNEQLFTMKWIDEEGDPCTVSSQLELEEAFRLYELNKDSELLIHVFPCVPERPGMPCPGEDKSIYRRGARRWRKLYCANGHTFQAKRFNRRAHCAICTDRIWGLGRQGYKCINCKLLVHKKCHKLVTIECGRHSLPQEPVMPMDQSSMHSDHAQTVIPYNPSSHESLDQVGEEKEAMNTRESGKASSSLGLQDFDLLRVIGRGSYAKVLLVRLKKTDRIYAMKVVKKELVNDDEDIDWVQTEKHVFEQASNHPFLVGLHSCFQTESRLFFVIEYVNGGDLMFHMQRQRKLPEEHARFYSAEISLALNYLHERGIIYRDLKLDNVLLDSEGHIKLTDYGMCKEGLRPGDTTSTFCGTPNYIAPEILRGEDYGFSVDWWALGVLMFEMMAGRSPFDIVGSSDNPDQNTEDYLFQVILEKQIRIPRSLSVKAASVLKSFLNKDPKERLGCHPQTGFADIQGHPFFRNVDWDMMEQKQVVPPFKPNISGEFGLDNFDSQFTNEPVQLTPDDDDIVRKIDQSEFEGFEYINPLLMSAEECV
The test can be described thus: PKCι IC50 IMAP assay, full-length PKCι at 150 μM ATP. Particulars: read-out: IC50 in IMAP assay against full length PKCi at 150 μM ATP. The class given is biochemical. Put shortly: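 Compounds in 4% final DMSO are mixed with Sf21-derived full-length human PKCι (typically 15 pM) and 100 nM FAM-labelled pseudosubstrate peptide, then started with 150 μM ATP. Reaction runs 60 min at room temperature, is quenched with IMAP development reagent for 2 h, and fluorescence polarisation is measured to derive IC50.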

Where a name gives a salt, the structure may show the parent alone.

As for `COc1cncc2nc(-c3ccnc(Nc4ccccc4)c3)nc(N3CCN[C@@H](C(C)C)C3)c12` [Example 224, {4-[4-((S)-3-Isopropyl-piperazin-1-yl)-5-methoxy-pyrido[3,4-d]pyrimidin-2-yl]-pyridin-2-yl}-phenyl-amine], the IC50 was less than 100 nM. Take `CN(c1nc(-c2ccnc(Nc3c(F)cccc3F)c2)nc2cncc(C3CC3)c12)C1CCNCC1` [Example 833, {5-Cyclopropyl-2-[2-(2,6-difluoro-phenylamino)-pyridin-4-yl]-pyrido[3,4-d]pyrimidin-4-yl}-methyl-piperidin-4-yl-amine]: the IC50 was less than 100 nM. Regarding `CN1CCN(c2cccc(Nc3cc(-c4nc(N5CC[C@H](CO)C5)c5c(C6CC6)cncc5n4)ccn3)c2)CC1` [Example 722, [(S)-1-(5-Cyclopropyl-2-{2-[3-(4-methyl-piperazin-1-yl)-phenylamino]-pyridin-4-yl}-pyrido[3,4-d]pyrimidin-4-yl)-pyrrolidin-3-yl]-methanol], the IC50 was less than 100 nM. Turning to `CC1(C)CN(c2nc(-c3ccnc4[nH]c5ccccc5c34)nc3cncc(C4CC4)c23)CCN1` [Example 1255, 4-[5-Cyclopropyl-4-(3,3-dimethyl-piperazin-1-yl)-pyrido[3,4-d]pyrimidin-2-yl]-9H-pyrido[2,3-b]indole trifluoroacetic acid salt], the IC50 was less than 100 nM. Consider `Clc1cncc2nc(-c3ccnc(Nc4ccccc4)c3)nc(N3CCNCC3)c12` [Example 246, [4-(5-Chloro-4-piperazin-1-yl-pyrido[3,4-d]pyrimidin-2-yl)-pyridin-2-yl]-phenyl-amine], for which the IC50 lay in the range of 100 to 1000 nM. Take `COc1cncc2nc(-c3ccnc(Nc4c(F)ccc(F)c4F)c3)nc(N3CCNCC3)c12` [Example 444, [4-(5-Methoxy-4-piperazin-1-yl-pyrido[3,4-d]pyrimidin-2-yl)-pyridin-2-yl]-(2,3,6-trifluoro-phenyl)-amine]: the IC50 was less than 100 nM. The value for `COc1cncc2nc(-c3ccnc(Nc4cncnc4)c3)nc(N[C@@H]3CCNC3)c12` [Example 385, {5-Methoxy-2-[2-(pyrimidin-5-ylamino)-pyridin-4-yl]-pyrido[3,4-d]pyrimidin-4-yl}-(R)-pyrrolidin-3-yl-amine] was 100 to 1000 nM; that for `CC(C)C(=O)Nc1cc(-c2nc(N3CCNCC3)c3c(C4CC4)cncc3n2)ccn1` [Example 583, N-[4-(5-Cyclopropyl-4-piperazin-1-yl-pyrido[3,4-d]pyrimidin-2-yl)-pyridin-2-yl]-isobutyramide] was less than 100 nM; that for `COc1cccc(Nc2cc(-c3nc(N4CC[C@H](CO)C4)c4c(OC)cncc4n3)ccn2)n1` [Example 471, ((S)-1-{5-Methoxy-2-[2-(6-methoxy-pyridin-2-ylamino)-pyridin-4-yl]-pyrido[3,4-d]pyrimidin-4-yl}-pyrrolidin-3-yl)-methanol] was 1000 to 10000 nM. Consider `CNc1ccc(Nc2nc(-c3ccnc(Nc4ncc(F)cc4F)c3)nc3cncc(C4CC4)c23)cc1` [Example 2206, N-{5-Cyclopropyl-2-[2-(3,5-difluoro-pyridin-2-ylamino)-pyridin-4-yl]-pyrido[3,4-d]pyrimidin-4-yl}-N′-methyl-benzene-1,4-diamine], for which the IC50 lay within 10000 to 40000 nM.

In the case of `CC1(C)CN(c2nc(-c3ccnc(Nc4c(F)cccc4F)c3)nc3cncc(C4CC4)c23)CCN1` [Example 718, {4-[5-Cyclopropyl-4-(3,3-dimethyl-piperazin-1-yl)-pyrido[3,4-d]pyrimidin-2-yl]-pyridin-2-yl}-(2,6-difluoro-phenyl)-amine], the IC50 was less than 100 nM. `Fc1ncc(C2CC2)c2c(N3CCNCC3)nc(-c3ccnc4[nH]c(C(F)(F)F)cc34)nc12` [Example 2102, 5-Cyclopropyl-8-fluoro-4-piperazin-1-yl-2-(2-trifluoromethyl-1H-pyrrolo[2,3-b]pyridin-4-yl)-pyrido[3,4-d]pyrimidine]: the IC50 was less than 100 nM. Regarding `COc1cncc2nc(-c3ccnc(Nc4ccc(F)c(F)c4F)c3)nc(N3CCNCC3)c12` [Example 454, [4-(5-Methoxy-4-piperazin-1-yl-pyrido[3,4-d]pyrimidin-2-yl)-pyridin-2-yl]-(2,3,4-trifluoro-phenyl)-amine], the half-maximal inhibitory concentration (IC50) lay within 100 to 1000 nM.

`CN1CCN(c2cccc(Nc3cc(-c4nc(N5CCCCC5)c5c(C6CC6)cncc5n4)ccn3)c2)CC1` [Example 710]: the IC50 lay within 100 to 1000 nM. With `c1ccc(C[C@H]2CN(c3nc(N4CCOCC4)nc4cncc(C5CC5)c34)CCN2)cc1` [Example 1017, 4-((S)-3-Benzyl-piperazin-1-yl)-5-cyclopropyl-2-morpholin-4-yl-pyrido[3,4-d]pyrimidine], the concentration for half-maximal inhibition (IC50) was less than 100 nM. As for `Clc1nccc2c(N3CCNCC3)nc(-c3ccncc3)nc12` [Example 32, 1-[8-chloro-2-(pyridin-4-yl)-pyrido[3,4-d]-pyrimidin-4-yl]-piperazine], the figure is 100 to 1000 nM; as for `COc1ccc(Nc2cc(-c3nc(N4CCNCC4)c4c(OC)cncc4n3)ccn2)cn1` [Example 394, [4-(5-Methoxy-4-piperazin-1-yl-pyrido[3,4-d]pyrimidin-2-yl)-pyridin-2-yl]-(6-methoxy-pyridin-3-yl)-amine], less than 100 nM; as for `CN1CCCN(c2nc(-c3ccncc3)nc3cnccc23)CC1` [Example 19, 1-methyl-4-[2-(pyridin-4-yl)-pyrido[3,4-d]-pyrimidin-4-yl]-1,4-diazepane], 10000 to 40000 nM. Take `COc1cncc2nc(-c3ccnc(Nc4ccccc4)c3)nc(N3CCNC(=O)C3)c12` [Example 438, 4-[5-Methoxy-2-(2-phenylamino-pyridin-4-yl)-pyrido[3,4-d]pyrimidin-4-yl]-piperazin-2-one]: the IC50 was 1000 to 10000 nM. In the case of `COc1cncc2nc(-c3ccncc3)nc(N3CC[C@H](N)C3)c12` [Example 53, (3S)-1-[5-methoxy-2-(pyridin-4-yl)-pyrido[3,4-d]-pyrimidin-4-yl]-pyrrolidin-3-amine], the half-inhibitory concentration (IC50) was 100 to 1000 nM. Turning to `CNC1CCCN(c2nc(-c3ccnc(Nc4ncc(F)cc4F)c3)nc3cncc(C4CC4)c23)C1` (stereo not drawn) [Example 2205, {4-[5-Cyclopropyl-4-(3-methylamino-piperidin-1-yl)-pyrido[3,4-d]pyrimidin-2-yl]-pyridin-2-yl}-(3,5-difluoro-pyridin-2-yl)-amine], the IC50 is less than 100 nM. Take `Fc1cccc(F)c1Nc1cc(-c2nc(NC3CCNC3)c3c(C4CC4)cncc3n2)ccn1` (stereo not drawn) [Example 837, {5-Cyclopropyl-2-[2-(2,6-difluoro-phenylamino)-pyridin-4-yl]-pyrido[3,4-d]pyrimidin-4-yl}-pyrrolidin-3-yl-amine]: the IC50 is less than 100 nM.

Turning to `OCC1CCN(c2nc(-c3ccnc4[nH]c(C(F)(F)F)cc34)nc3cncc(C4CC4)c23)CC1` [Example 1242, {1-[5-Cyclopropyl-2-(2-trifluoromethyl-1H-pyrrolo[2,3-b]pyridin-4-yl)-pyrido[3,4-d]pyrimidin-4-yl]-piperidin-4-yl}-methanol], the half-maximal inhibitory concentration (IC50) fell in the range of 1000 to 10000 nM.

For the compound “(3-Chloro-2,6- difluoro-phenyl)- [4-(5-cyclopropyl- 4-piperazin-1-yl- pyrido[3,4- d]pyrimidin-2-yl)- pyridin-2-yl]- amine [Example 649]”, the IC50 is less than 100 nM.

Turning to `Fc1cccnc1Nc1cc(-c2nc(N3CCNCC3)c3c(C4CC4)cncc3n2)ccn1` [Example 526, [4-(5-Cyclopropyl-4-piperazin-1-yl-pyrido[3,4-d]pyrimidin-2-yl)-pyridin-2-yl]-(3-fluoro-pyridin-2-yl)-amine], the half-inhibitory concentration (IC50) was less than 100 nM. For the compound `Fc1cnccc1-c1nc(N2CCNCC2)c2ccncc2n1` [Example 65, 1-[2-(3-fluoropyridin-4-yl)pyrido[3,4-d]-pyrimidin-4-yl]-piperazine], the IC50 fell in the range of 10000 to 40000 nM. For `COc1cncc2nc(-c3ccnc(Nc4cccc(C)c4F)c3)nc(N3CCNCC3)c12` [Example 451, (2-Fluoro-3-methyl-phenyl)-[4-(5-methoxy-4-piperazin-1-yl-pyrido[3,4-d]pyrimidin-2-yl)-pyridin-2-yl]-amine], the 50% inhibitory concentration (IC50) is less than 100 nM.

In the case of `Fc1ccc(Nc2cc(-c3nc(N4CCNCC4)c4c(C5CC5)cncc4n3)ccn2)c(F)c1` [Example 651, [4-(5-Cyclopropyl-4-piperazin-1-yl-pyrido[3,4-d]pyrimidin-2-yl)-pyridin-2-yl]-(2,4-difluoro-phenyl)-amine], the IC50 is less than 100 nM.

As for `Fc1cc(F)c(F)c(Nc2cc(-c3nc(NC4CCNC4)c4c(C5CC5)cncc4n3)ccn2)n1` (stereo not drawn) [Example 2021, {5-Cyclopropyl-2-[2-(3,4,6-trifluoro-pyridin-2-ylamino)-pyridin-4-yl]-pyrido[3,4-d]pyrimidin-4-yl}-pyrrolidin-3-yl-amine], the IC50 is less than 100 nM.

As to `OC1CCN(c2nc(-c3ccnc4[nH]c5ccccc5c34)nc3cncc(C4CC4)c23)CC1` [Example 1254, 1-[5-cyclopropyl-2-(9H-pyrido[2,3-b]indol-4-yl)-pyrido[3,4-d]pyrimidin-4-yl]-piperidin-4-ol trifluoroacetic acid salt], the half-inhibitory concentration (IC50) lay in the range of 100 to 1000 nM.
